Where two headings read alike, the source gives them in different places.
Target: 5-HT2A receptors (Rattus norvegicus, UniProt P14842)
Assay: in-vitro affinity to 5-HT2A receptors, displacement of [3H]ketanserine (Example A1)
Type: binding
From the text: The 5-HT2A receptors are exposed both to [^3H]ketanserine (a substance which is known for its affinity to the receptor) and also to the test compound. The decrease in the affinity of [^3H]ketanserine to the receptor is an indication of the affinity of the test substance to the 5-HT2A receptor.

[1] = target not given, description names affinity to 5-HT2A receptors, read-out: IC50

5-HT2A receptors, sequence (P14842 whole entry): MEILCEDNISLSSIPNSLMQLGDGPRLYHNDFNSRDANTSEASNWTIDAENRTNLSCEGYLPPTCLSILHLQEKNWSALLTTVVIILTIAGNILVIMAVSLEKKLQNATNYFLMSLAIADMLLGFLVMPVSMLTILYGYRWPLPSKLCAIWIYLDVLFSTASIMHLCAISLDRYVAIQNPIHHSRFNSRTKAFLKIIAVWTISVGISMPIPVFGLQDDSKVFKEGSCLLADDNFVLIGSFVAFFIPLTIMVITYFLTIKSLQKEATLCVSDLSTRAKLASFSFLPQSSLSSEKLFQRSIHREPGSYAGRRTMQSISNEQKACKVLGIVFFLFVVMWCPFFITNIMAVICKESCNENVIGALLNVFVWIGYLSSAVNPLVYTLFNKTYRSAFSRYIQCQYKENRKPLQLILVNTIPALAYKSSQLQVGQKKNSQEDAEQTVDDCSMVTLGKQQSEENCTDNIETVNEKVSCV

Molecule	IC50 (read-out: HT2A IC50)	IC50 [1]
1-(Biphenyl-4-yltrifluoromethyl-1H-pyrazol-4-ylmethyl)-4-methylpiperazine [Example 1026]	260 nM	
1-Biphenyl-4-yl-5-(2-fluorophenyl)-4-(2-methoxy-methylpyrrolidin-1-ylmethyl)-1H-pyrazole [(48)]		510 nM
OCc1cnn(-c2ccc(-c3ccccc3)cc2)c1-c1ccccc1F [(21), [1-Biphenyl-4-yl-5-(2-fluorophenyl)-1H-pyrazol-4-yl]-methanol]		1200 nM
CC(=O)OCc1cnn(-c2ccc(-c3ccccc3)cc2)c1-c1ccccc1F [(22), 1-Biphenyl-4-yl-5-(2-fluorophenyl)-1H-pyrazol-4-ylmethyl acetate]		1400 nM
Fc1ccccc1-c1c(CN2CCCCC2)cnn1-c1ccc(-c2ccccc2)cc1 [(23), 1-[1-Biphenyl-4-yl-5-(2-fluorophenyl)-1H-pyrazol-4-ylmethyl]-piperidine]		30 nM
Fc1ccccc1-c1c(CN2CCN(Cc3ccccc3)CC2)cnn1-c1ccc(-c2ccccc2)cc1 [(24), 1-Benzyl-4-[1-biphenyl-4-yl-5-(2-fluorophenyl)-1H-pyrazol-4-ylmethyl]piperazine]		170 nM
Fc1ccccc1-c1c(CN2CCC(N3CCOCC3)CC2)cnn1-c1ccc(-c2ccccc2)cc1 [(25), 4-{1-[1-Biphenyl-4-yl-5-(2-fluorophenyl)-1H-pyrazol-4-ylmethyl]piperidin-4-yl}morpholine]		560 nM
COCCCNCc1cnn(-c2ccc(-c3ccccc3)cc2)c1-c1ccccc1F [(26), [1-Biphenyl-4-yl-5-(2-fluorophenyl)-1H-pyrazol-4-ylmethyl]-(3-methoxypropyl)amine]		34 nM
Fc1ccccc1-c1c(CN2CCN3CCc4ccccc4C3C2)cnn1-c1ccc(-c2ccccc2)cc1 (stereo not shown) [(27), 2-[1-Biphenyl-4-yl-5-(2-fluorophenyl)-1H-pyrazol-4-ylmethyl]-1,3,4,6,7,11b-hexahydro-2H-pyrazino[2,1-a]-isoquinoline]		280 nM
Fc1ccccc1-c1c(CN2CCOCC2)cnn1-c1ccc(-c2ccccc2)cc1 [(28), 4-[1-Biphenyl-4-yl-5-(2-fluorophenyl)-1H-pyrazol-4-ylmethyl]-morpholine]		1100 nM
O=C(O)CNCc1cnn(-c2ccc(-c3ccccc3)cc2)c1-c1ccccc1F [(29), {[1-Biphenyl-4-yl-5-(2-fluorophenyl)-1H-pyrazol-4-ylmethyl]-amino}acetic acid]		1700 nM
Fc1ccccc1-c1c(CN2CC=CC2)cnn1-c1ccc(-c2ccccc2)cc1 [(30), 1-Biphenyl-4-yl-4-(2,5-dihydropyrrol-1-ylmethyl)-5-(2-fluorophenyl)-1H-pyrazole]		36 nM
Fc1ccccc1-c1c(CN2CCCCCC2)cnn1-c1ccc(-c2ccccc2)cc1 [(31), 1-[1-Biphenyl-4-yl-5-(2-fluorophenyl)-1H-pyrazol-4-ylmethyl]-azepan]		48 nM
CCN(Cc1ccccc1)Cc1cnn(-c2ccc(-c3ccccc3)cc2)c1-c1ccccc1F [(32), Benzyl-[1-biphenyl-4-yl-5-(2-fluorophenyl)-1H-pyrazol-4-ylmethyl]ethylamine]		320 nM
CCN(CC)Cc1cnn(-c2ccc(-c3ccccc3)cc2)c1-c1ccccc1F [(33), [1-Biphenyl-4-yl-5-(2-fluorophenyl)-1H-pyrazol-4-ylmethyl]-diethylamine]		55 nM
CN(C)Cc1cnn(-c2ccc(-c3ccccc3)cc2)c1-c1ccccc1F [(34), [1-Biphenyl-4-yl-5-(2-fluorophenyl)-1H-pyrazol-4-ylmethyl]-dimethylamine]		21 nM
Fc1ccccc1-c1c(CN2CCCC2)cnn1-c1ccc(-c2ccccc2)cc1 [(35), 1-Biphenyl-4-yl-5-(2-fluorophenyl)-4-pyrrolidin-1-ylmethyl-1H-pyrazole]		32 nM
Fc1ccccc1-c1c(CN2CCc3ccccc3C2)cnn1-c1ccc(-c2ccccc2)cc1 [(36), 2-[1-Biphenyl-4-yl-5-(2-fluorophenyl)-1H-pyrazol-4-ylmethyl]-1,2,3,4-tetrahydroisoquinoline]		70 nM
CN(C)C1CCN(Cc2cnn(-c3ccc(-c4ccccc4)cc3)c2-c2ccccc2F)CC1 [(37), {1-[1-Biphenyl-4-yl-5-(2-fluorophenyl)-1H-pyrazol-4-ylmethyl]-piperidin-4-yl}dimethylamine]		200 nM
Fc1ccccc1-c1c(CN2CC=CCC2)cnn1-c1ccc(-c2ccccc2)cc1 [(38), 1-[1-Biphenyl-4-yl-5-(2-fluorophenyl)-1H-pyrazol-4-ylmethyl]-1,2,3,6-tetrahydropyridine]		170 nM
CN1CCC(N(C)Cc2cnn(-c3ccc(-c4ccccc4)cc3)c2-c2ccccc2F)CC1 [(39), [1-Biphenyl-4-yl-5-(2-fluorophenyl)-1H-pyrazol-4-ylmethyl]-methyl-(1-methylpiperidin-4-yl)amine]		160 nM
CN1CCN(NCc2cnn(-c3ccc(-c4ccccc4)cc3)c2-c2ccccc2F)CC1 [(40), [1-Biphenyl-4-yl-5-(2-fluorophenyl)-1H-pyrazol-4-ylmethyl]-(4-methylpiperazin-1-yl)amine]		14 nM

Molecule	IC50 (read-out: HT2A IC50)	IC50 [1]
CN1CCN(Cc2cnn(-c3ccc(-c4ccccc4)cc3)c2-c2ccccc2F)CC1 [(41), 1-[1-Biphenyl-4-yl-5-(2-fluorophenyl)-1H-pyrazol-4-ylmethyl]-4-methylpiperazine]		24 nM
Fc1ccccc1-c1c(CCN2CCOCC2)cnn1-c1ccc(-c2ccccc2)cc1 [(42), 4-{2-[1-Biphenyl-4-yl-5-(2-fluorophenyl)-1H-pyrazol-4-yl]ethyl}morpholine]		12 nM
Fc1ccccc1-c1cc(CN2CCCCC2)nn1-c1ccc(-c2ccccc2)cc1 [(43), 1-[1-Biphenyl-4-yl-5-(2-fluorophenyl)-1H-pyrazol-3-ylmethyl]-piperidine]		120 nM
Fc1ccccc1-c1cc(CN2CCOCC2)nn1-c1ccc(-c2ccccc2)cc1 [(44), 4-[1-Biphenyl-4-yl-5-(2-fluorophenyl)-1H-pyrazol-3-ylmethyl]-morpholine]		1100 nM
CN1CCN(Cc2cc(-c3ccccc3F)n(-c3ccc(-c4ccccc4)cc3)n2)CC1 [(45), 1-[1-Biphenyl-4-yl-5-(2-fluorophenyl)-1H-pyrazol-3-ylmethyl]-4-methylpiperazine]		300 nM
Fc1ccccc1-c1c(C=CCN2CCOCC2)cnn1-c1ccc(-c2ccccc2)cc1 [(46), 4-{3-[1-Biphenyl-4-yl-5-(2-fluorophenyl)-1H-pyrazol-4-yl]allyl}morpholine]		17 nM
Fc1ccccc1-c1c(CCCN2CCOCC2)cnn1-c1ccc(-c2ccccc2)cc1 [(47), 4-{3-[1-Biphenyl-4-yl-5-(2-fluorophenyl)-1H-pyrazol-4-yl]propyl}morpholine]		23 nM
CC1CCN(Cc2cnn(-c3ccc(-c4ccccc4)cc3)c2-c2ccccc2F)CC1 [(49), 1-[1-Biphenyl-4-yl-5-(2-fluorophenyl)-1H-pyrazol-4-ylmethyl]-4-methylpiperidine]		130 nM
CC(=O)NC1CCN(Cc2cnn(-c3ccc(-c4ccccc4)cc3)c2-c2ccccc2F)C1 (stereo not shown) [(50), N-{1-[1-Biphenyl-4-yl-5-(2-fluorophenyl)-1H-pyrazol-4-ylmethyl]pyrrolidin-3-yl}acetamide]		29 nM
CCN(CC)CC1CCCCN1Cc1cnn(-c2ccc(-c3ccccc3)cc2)c1-c1ccccc1F (stereo not shown) [(51), {1-[1-Biphenyl-4-yl-5-(2-fluorophenyl)-1H-pyrazol-4-ylmethyl]-piperidin-2-ylmethyl}diethylamine]		270 nM
CN1CCN(C(=O)c2cnn(-c3ccc(-c4ccccc4)cc3)c2-c2ccccc2F)CC1 [(52), 1-[1-Biphenyl-4-yl-5-(2-fluorophenyl)-1H-pyrazol-4-yl]-1-(4-methylpiperazin-1-yl)methanone]		820 nM
OC1CCN(Cc2cnn(-c3ccc(-c4ccccc4)cc3)c2-c2ccccc2F)C1 (stereo not shown) [(53), 1-[1-Biphenyl-4-yl-5-(2-fluorophenyl)-1H-pyrazol-4-ylmethyl]-pyrrolidin-3-ol]		14 nM
CC(C)(C)OC(=O)N1CCN(Cc2cnn(-c3ccc(-c4ccccc4)cc3)c2-c2ccccc2F)CC1 [(54), tert-Butyl 4-[1-Biphenyl-4-yl-5-(2-fluorophenyl)-1H-pyrazol-4-ylmethyl]piperazine-1-carboxylate]		82 nM
Fc1ccccc1-c1c(CN2CCNCC2)cnn1-c1ccc(-c2ccccc2)cc1 [(55), 1-[1-Biphenyl-4-yl-5-(2-fluorophenyl)-1H-pyrazol-4-ylmethyl]-piperazine]		26 nM
Fc1ccccc1-c1c(CN2CCNCC2)cnn1-c1ccc(-c2ccccc2)nc1 [(56), 1-[5-(2-Fluorophenyl)-1-(6-phenylpyridin-3-yl)-1H-pyrazol-4-ylmethyl]piperazine]		150 nM
CN1CCN(Cc2cnn(-c3ccc(-c4ccccc4)nc3)c2-c2ccccc2F)CC1 [(57), 1-[5-(2-Fluorophenyl)-1-(6-phenylpyridin-3-yl)-1H-pyrazol-4-ylmethyl]-4-methylpiperazine]		220 nM
CN1CCN(Cc2cnn(-c3ccc(-c4ccccc4)cc3)c2-c2ccccn2)CC1 [(58), 1-(1-Biphenyl-4-yl-5-pyridin-2-yl-1H-pyrazol-4-ylmethyl)-4-methylpiperazine]		50 nM
CC(C)(C)OC(=O)N1CCN(Cc2cnn(-c3ccc(-c4ccccc4)cc3)c2-c2ccccn2)CC1 [(59), tert-Butyl 4-(1-biphenyl-4-yl-5-pyridin-2-yl-1H-pyrazol-4-ylmethyl)piperazine-1-carboxylate]		780 nM
c1ccc(-c2ccc(-n3ncc(CN4CCNCC4)c3-c3ccccn3)cc2)cc1 [(60), 1-(1-Biphenyl-4-yl-5-pyridin-2-yl-1H-pyrazol-4-ylmethyl)-piperazine]		200 nM
Fc1ccc(-c2ccc(-n3ncc(CN4CCOCC4)c3-c3ccccc3F)cc2)cc1 [(61), 4-[1-(4′-Fluorobiphenyl-4-yl)-5-(2-fluorophenyl)-1H-pyrazol-4-ylmethyl]morpholine]		520 nM
Fc1ccccc1-c1c(CN2CCOCC2)cnn1-c1ccc(-c2cccs2)cc1 [(62), 4-[5-(2-Fluorophenyl)-1-(4-thiophen-2-ylphenyl)-1H-pyrazol-4-ylmethyl]morpholine]		620 nM

From patent US20060264419A1 (priority 2003, published 2006)
